Assay: xn = mol fraction of the nth substance listed
Conditions: 100 kPa

CC[N+](C)(CC)CCOC.F[B-](F)(F)F + CCCC[n+]1ccn(C)c1C.F[B-](F)(F)F
electrical conductivity [S/m]
Conditions | x1 = 0.1 | x1 = 0.2 | x1 = 0.3 | x1 = 0.4 | x1 = 0.5 | x1 = 0.6 | x1 = 0.7 | x1 = 0.8 | x1 = 0.9 | x1 = 1
313.15 K | 0.231 | 0.244 | 0.282 | – | 0.29 | 0.296 | – | 0.321 | 0.348 | 0.343
318.15 K | 0.305 | – | 0.354 | – | – | 0.38 | 0.392 | – | 0.445 | –
323.15 K | 0.392 | 0.404 | 0.437 | 0.445 | 0.465 | 0.472 | 0.498 | 0.519 | – | 0.553
328.15 K | – | – | 0.534 | 0.541 | – | 0.579 | 0.614 | 0.639 | – | 0.68
333.15 K | 0.604 | 0.613 | 0.643 | 0.67 | – | 0.72 | 0.766 | 0.782 | 0.822 | 0.829
338.15 K | 0.727 | 0.736 | 0.758 | – | 0.79 | 0.828 | 0.884 | 0.939 | 0.995 | 1
343.15 K | 0.861 | 0.871 | 0.9 | – | 0.936 | 0.978 | 1.03 | 1.09 | – | 1.18
348.15 K | 1.02 | 1.03 | 1.05 | 1.07 | 1.09 | – | 1.2 | 1.27 | 1.37 | 1.39
353.15 K | 1.16 | – | – | – | – | 1.32 | – | 1.42 | 1.59 | –
358.15 K | 1.31 | 1.35 | – | – | 1.46 | 1.51 | 1.56 | – | 1.82 | 1.86
363.15 K | 1.5 | 1.53 | 1.58 | 1.62 | – | 1.73 | 1.77 | 1.82 | 2.01 | –

CCCCn1cc[n+](C)c1C.O=S(=O)([N-]S(=O)(=O)C(F)(F)F)C(F)(F)F + CCCC[n+]1ccn(C)c1C.F[B-](F)(F)F
electrical conductivity [S/m]
Conditions | x1 = 0.1 | x1 = 0.2 | x1 = 0.3 | x1 = 0.4 | x1 = 0.5 | x1 = 0.6 | x1 = 0.7 | x1 = 0.8 | x1 = 0.9 | x1 = 1
313.15 K | 0.231 | 0.249 | 0.265 | 0.305 | – | 0.32 | 0.35 | 0.403 | 0.476 | 0.465
318.15 K | 0.301 | 0.32 | – | 0.378 | – | 0.394 | 0.432 | – | 0.572 | 0.566
323.15 K | 0.381 | – | – | – | 0.476 | 0.482 | 0.521 | 0.59 | 0.683 | 0.665
328.15 K | 0.474 | 0.49 | 0.508 | 0.54 | 0.572 | 0.581 | 0.617 | 0.698 | 0.812 | 0.777
333.15 K | 0.587 | 0.6 | 0.617 | 0.645 | 0.68 | – | 0.709 | 0.816 | 0.94 | 0.901
338.15 K | 0.707 | 0.715 | – | – | 0.796 | – | 0.839 | 0.949 | 1.08 | 1.04
343.15 K | 0.844 | 0.848 | 0.859 | 0.894 | 0.931 | 0.952 | 0.963 | 1.08 | 1.23 | 1.18
348.15 K | 0.997 | 0.995 | 1.01 | – | 1.07 | 1.08 | 1.09 | – | – | 1.37
353.15 K | 1.16 | 1.15 | 1.16 | 1.18 | 1.23 | 1.23 | 1.24 | – | 1.56 | 1.54
358.15 K | – | 1.31 | 1.32 | 1.34 | – | 1.4 | – | – | 1.74 | –
363.15 K | 1.5 | – | 1.5 | 1.51 | – | 1.57 | 1.59 | 1.64 | 1.91 | 1.87

CCCC[n+]1ccn(C)c1C.F[B-](F)(F)F + CC[N+](C)(CC)CCOC.F[B-](F)(F)F
x2 = 0
Conditions | electrical conductivity [S/m]
318.15 K | 0.153
323.15 K | 0.202
328.15 K | 0.26
353.15 K | 0.749
358.15 K | 0.867
363.15 K | 0.995

CC[N+](C)(CC)CCOC.O=S(=O)([N-]S(=O)(=O)C(F)(F)F)C(F)(F)F + CC[N+](C)(CC)CCOC.F[B-](F)(F)F
x1 = 1
Conditions | electrical conductivity [S/m]
293.15 K | 0.237
303.15 K | 0.382
308.15 K | 0.476
313.15 K | 0.572
318.15 K | 0.683
323.15 K | 0.794
328.15 K | 0.922
333.15 K | 1.06
338.15 K | 1.2
343.15 K | 1.32

CC[N+](C)(CC)CCOC.F[B-](F)(F)F + CC[N+](C)(CC)CCOC.O=S(=O)([N-]S(=O)(=O)C(F)(F)F)C(F)(F)F
electrical conductivity [S/m]
Conditions | x2 = 0 | x2 = 0.1 | x2 = 0.2 | x2 = 0.3 | x2 = 0.4 | x2 = 0.5 | x2 = 0.6 | x2 = 0.7 | x2 = 0.8 | x2 = 0.9
293.15 K | 0.096 | – | 0.133 | 0.14 | 0.149 | 0.161 | 0.175 | 0.168 | 0.184 | 0.198
298.15 K | 0.136 | 0.161 | 0.174 | – | 0.202 | 0.214 | 0.234 | – | 0.251 | –
303.15 K | 0.19 | 0.218 | 0.233 | 0.25 | 0.264 | 0.277 | 0.304 | 0.298 | 0.324 | –
308.15 K | 0.255 | 0.292 | 0.305 | – | 0.338 | – | – | 0.381 | 0.407 | 0.423
313.15 K | 0.343 | 0.381 | – | – | 0.425 | 0.444 | 0.47 | 0.472 | – | 0.509
318.15 K | 0.437 | 0.483 | 0.485 | 0.506 | – | 0.541 | 0.569 | – | 0.599 | 0.625
323.15 K | 0.553 | 0.596 | – | – | 0.636 | 0.652 | 0.684 | 0.687 | 0.709 | 0.731
328.15 K | 0.68 | 0.737 | – | 0.734 | 0.763 | 0.779 | – | 0.804 | 0.833 | 0.863
333.15 K | 0.829 | – | 0.858 | 0.873 | 0.897 | – | 0.934 | – | 0.964 | 0.993
338.15 K | 1 | 1.06 | 1.02 | 1.02 | 1.04 | 1.06 | 1.08 | – | 1.11 | 1.13
343.15 K | 1.18 | 1.24 | – | – | 1.2 | 1.22 | 1.24 | 1.23 | – | 1.29

CCCCn1cc[n+](C)c1C.O=S(=O)([N-]S(=O)(=O)C(F)(F)F)C(F)(F)F + CC[N+](C)(CC)CCOC.O=S(=O)([N-]S(=O)(=O)C(F)(F)F)C(F)(F)F
electrical conductivity [S/m]
Conditions | x2 = 0 | x2 = 0.1 | x2 = 0.2 | x2 = 0.3 | x2 = 0.4 | x2 = 0.5 | x2 = 0.6 | x2 = 0.7 | x2 = 0.8 | x2 = 0.9
293.15 K | – | 0.191 | – | 0.195 | 0.201 | – | 0.206 | 0.211 | 0.21 | 0.21
298.15 K | – | 0.253 | – | 0.259 | 0.263 | 0.264 | 0.268 | 0.275 | 0.28 | 0.28
303.15 K | 0.302 | 0.323 | 0.326 | 0.325 | 0.336 | 0.337 | 0.345 | 0.355 | 0.351 | 0.351
308.15 K | – | 0.402 | 0.403 | 0.407 | 0.414 | 0.423 | 0.426 | 0.432 | 0.434 | 0.434
313.15 K | 0.465 | 0.498 | 0.497 | 0.499 | 0.509 | – | 0.515 | – | 0.56 | 0.56
318.15 K | 0.566 | 0.589 | – | 0.601 | 0.611 | 0.616 | 0.62 | 0.638 | – | 0.648
323.15 K | – | 0.705 | 0.71 | 0.722 | 0.726 | 0.735 | 0.742 | – | 0.763 | 0.763
328.15 K | – | – | 0.825 | – | – | 0.865 | 0.87 | 0.876 | 0.902 | –
333.15 K | 0.901 | 0.965 | 0.962 | 0.969 | 0.973 | 0.991 | – | 1.01 | 1.02 | 1.02
338.15 K | 1.04 | 1.1 | – | 1.12 | 1.12 | 1.13 | 1.13 | 1.16 | 1.17 | 1.17
343.15 K | 1.18 | – | – | 1.27 | 1.27 | 1.28 | 1.29 | 1.32 | – | 1.33

CCCC[n+]1ccn(C)c1C.F[B-](F)(F)F + FC(S(=O)(=O)[N-]S(=O)(=O)C(F)(F)F)(F)F.C(CCC)N1C(=[N+](C=C1)C)C
x2 = 0
Conditions | electrical conductivity [S/m]
318.15 K | 0.153
333.15 K | 0.335
343.15 K | 0.531
348.15 K | 0.63
353.15 K | 0.749
358.15 K | 0.867
363.15 K | 0.995

CC[N+](C)(CC)CCOC.O=S(=O)([N-]S(=O)(=O)C(F)(F)F)C(F)(F)F + FC(S(=O)(=O)[N-]S(=O)(=O)C(F)(F)F)(F)F.C(CCC)N1C(=[N+](C=C1)C)C
x1 = 1
Conditions | electrical conductivity [S/m]
293.15 K | 0.237
298.15 K | 0.311
303.15 K | 0.382
308.15 K | 0.476
313.15 K | 0.572
318.15 K | 0.683
323.15 K | 0.794
328.15 K | 0.922
333.15 K | 1.06
338.15 K | 1.2
343.15 K | 1.32
